Laboratory results: patent publication US9738610B2, “Indazole derivatives and uses thereof” (Whitehead Institute for Biomedical Research, priority 2012, dated 2017)
Where two headings read alike, the source gives them in different places.

Assays:
Plasma stability = settings: % remaining in human plasma after a 5-hour incubation
C. albicans CaCi-8 = assay: microbe, parasite or virus in culture; assay type: cell-based, Candida albicans
Method: This subset was re-subjected to the primary assay and was also tested concurrently in two secondary assays. Secondary assay 1 measured chemosensitization of the more resistant CaCi-8 strain. Secondary assay 2 eliminated anything with inherently antifungal activity. […] A final assay (secondary assay 3) was incorporated to discard any compound displaying toxicity to mammalian fibroblasts. […] This screening campaign is also illustrated in FIG. 3B.
Those that inhibited growth in the resistant strain were also tested for toxicity against Candida in the absence of fluconazole and for toxicity against mammalian cells using a fluorescence reporter assay. The positive control for screening in the Candida and mammalian cell assays was the Hsp90 inhibitor geldanamycin (acting in concert with fluconazole; FIG. 4). Compounds that passed these four hurdles were binned through use of a Saccharomyces assay to determine whether the mechanism of action might be through the Hsp90 pathway, the calcineurin pathway, or an uncategorized mechanism.

Plasma protein binding = settings: % bound in human plasma
C. albicans CaCi-2 [1] = assay: Secondary single-agent (no-fluconazole) activity assay; assay type: cell-based, Candida albicans; settings: in the absence of fluconazole; read-out: Target Potency (μM) Mean ± S.E.M CaCi-2^b IC50
Method: Clear, flat-bottom, black, 384-well plates were obtained from Corning. […] Pen/Strep was obtained from Gibco and prepared 100× in PBS. Fluconazole was obtained from Sigma and prepared in 2 mg/ml stock solution in PBS. Alamar Blue was obtained from Biosource International (Catalog No. DAL1100). Phosphate buffered solution (PBS) without calcium and magnesium was obtained from Cellgro.
Fungal inoculum was prepared as follows: 500 μl of yeast was inoculated from cryopreserved stock into a 250-ml shaker flask containing 30 ml growth medium and shaken overnight (16 hours) at 30° C. The culture was spun down, and the broth was poured off and washed with RPMI medium. The culture was spun down again, and the broth was poured off and resuspended in RPMI medium. The OD 600 of 1 ml of fungal culture in a cuvette was read using a standard optical density reader with growth medium as a background blank. The desired volume of fungal inoculum was diluted to starting OD of the fungal inoculum of 0.00015 A600.
Pen/Strep was added to the media to a final 1% concentration. A Combi NL (Thermo) was used to dispense 20 μl/well of assay media into all wells. Geldanamycin (1.5 mM) and fluconazole (0.2 mg/ml) were mixed for the positive control. Then, 80 nl of positive control solution was dispensed into the positive control wells using Thermo Combi nL for a final concentration of 3 μM geldanamycin and 8 μg/ml fluconazole. Then, 100 nl of test compound were pinned from the compound plates into assay plates using a CyBi-Well pin tool. A further 20 μl/well of RPMI synthetic defined medium culture was dispensed into 384-well, black plates. Fungal suspension (20 μl/well) was dispensed into all wells. The plates were incubated in a humidified (90% humidity) Liconic incubator at 37° C. without agitation for 48 hours. Alamar Blue Reagent was diluted 1:40 in Ca/Mg-free PBS. To all plates, 6.4 μl/well of the diluted Alamar Blue was added to the plates to a final dilution factor of 1:200. The plates were incubated for 2 hours at room temperature. Next, RFU of wells was read on a standard plate reader as a measure of relative fungal growth.

C. albicans CaCi-2 [2] = assay: CaCi-2 growth inhibition in the presence of 8 μg/ml fluconazole (Alamar Blue); assay type: cell-based, Candida albicans
Method: Fluconazole was obtained from Sequoia Research Products, Ltd. and prepared in a 2 mg/ml stock solution in phosphate buffered saline (PBS). […] PBS (Catalog No. 21-040-CV) without calcium and magnesium was obtained from Cellgro. Penicillin/Streptomycin (Pen/Strep) was obtained from Gibco and prepared 100× in PBS.
RPMI medium (1×) was prepared by dissolving 10.4 g powdered medium in 800 ml water. A buffer of 34.52 g MOPS was added. While stirring, pH was adjusted to 7.0 with 10 N NaOH. Next, 10 ml uridine solution and 50 ml glucose solution were added. The final volume was adjusted to 1000 ml, and filter sterilized.
The following yeast strains were used in this study: C. albicans CaCi-2. Fungal inoculum was prepared as follows: 500 μl of strain was inoculated from cryopreserved stock into a 250-ml shaker flask containing 30 ml growth medium and shaken overnight at 30° C. The optical density (OD 600) of 1 ml fungal culture in a cuvette was read using a standard optical density reader (Eppendorf BioPhotometer Plus), with growth medium as a background blank. The desired volume of fungal inoculums was diluted to desired volume of fungal inoculums according to the following formula: (1/OD measured)×(Desired Final Volume of Inoculum)×0.3=Volume of fungal culture (μl) to add to desired volume of growth medium. When added to media in wells, this yields a calculated starting OD of the fungal inoculum of 0.00015.
Fluconazole stock solution was added to the fungal inoculum to achieve 8 μg/ml. Pen/Strep was added to the media to a 1% concentration (v/v). A Thermo Combi nL was used to dispense 20 μl/well of assay media into all wells. Geldanamycin was dispensed in positive control wells using Thermo Combi nL for a final concentration of 3 μM. Then, 100 nl of test compound was pinned from compound plates into assay plates using a CyBi-Well pin tool. A further 20 μl/well of culture was dispensed into the assay media in all wells. The plates were incubated in a humidified (90% humidity) Liconic incubator at 37° C. without agitation for 48 hours. Alamar Blue was diluted 1:40 in Ca/Mg-free PBS. To all plates, […] of the diluted Alamar Blue was added to the plates to a final dilution factor of 1:200. The plates were incubated for an additional 2 hours. Then, Relative Fluorescence Intensity (RFU) of each well was read on standard plate reader as a measure of relative fungal growth.

[3] = in the presence of fluconazole, read-out: Target Potency (μM) Mean ± S.E.M CaCi-8^a IC50
[4] = 37° C., 48 hours, with 8 μg/mL (26 μM) fluconazole, average of at least three experiments, read-out: CaCi-2 IC50
[5] = 37° C., 48 hours, with 8 μg/mL (26 μM) fluconazole, average of at least three experiments, read-out: CaCi-8 IC50
[6] = 37° C., 48 hours, with 8 μg/mL (26 μM) fluconazole, average of at least three experiments

With `COC(=O)Cn1nc(-c2ccccc2)c2ccc(C(F)(F)F)cc21` [Compound 49835849] the “Plasma Stability” value (Plasma stability) was 1.7%, the IC50 (C. albicans CaCi-8; [3]) was 32.1 µM and the “Plasma Protein Binding” value (Plasma protein binding) was 62%. For the same molecule, the IC50 (C. albicans CaCi-2 [1]) was greater than 26 µM.
For `COC(=O)Cn1nc(-c2ccc(C#N)cc2)c2ccccc21` [Compound 49835863], the “Plasma Stability” value (Plasma stability) was less than 1.0%, the IC50 (C. albicans CaCi-8; [3]) was 20 µM and the “Plasma Protein Binding” value (Plasma protein binding) was 92%. The IC50 (C. albicans CaCi-2 [1]) was greater than 26 µM.
In the case of `O=C(Cn1nc(-c2ccccc2)c2ccccc21)OC1CCC1` [Compound 49835870], the “Plasma Stability” value (Plasma stability) is reported as 2.0%, the IC50 (C. albicans CaCi-8; [3]) is reported as greater than 26 µM and the “Plasma Protein Binding” value (Plasma protein binding) is reported as greater than 99%. The IC50 (C. albicans CaCi-2 [1]) was greater than 26 µM.
For `COC(=O)C(C)(C)n1nc(-c2ccccc2)c2ccccc21` [Compound 49835873], the “Plasma Stability” value (Plasma stability) was 63%, the IC50 (C. albicans CaCi-8; [3]) was greater than 26 µM and the “Plasma Protein Binding” value (Plasma protein binding) was greater than 99%. For the same molecule, the IC50 (C. albicans CaCi-2 [1]) was greater than 26 µM.
In the case of `COC(=O)Cn1nc(-c2ccccc2)c2ccccc21` [Compound I-16, methyl 3-phenyl-1H-indazole acetate], the IC50 (C. albicans CaCi-2 [2]; Candida albicans, CACI2, Table 12, read-out: CaCi-2 IC50 with 8 μg/ml fluconazole) is reported as 1800 nM.
Molecule `COC(=O)Cn1nc(-c2ccc(C)cc2)c2ccccc21` [Cpd 30] has an IC50 (C. albicans CaCi-2 [2]; [4]) of 4800 ± 2500 nM and an IC50 (C. albicans CaCi-8; [5]) of 19.5 ± 14.2 µM.
For `COC(=O)Cn1nc(-c2ccc(OC)cc2)c2ccccc21` [Cpd 31], the IC50 (C. albicans CaCi-2 [2]; [4]) was 4200 ± 1700 nM and the IC50 (C. albicans CaCi-8; [5]) was 14.1 ± 6.4 µM.
`COC(=O)Cn1nc(-c2ccc(F)cc2)c2ccccc21` [Cpd 32] showed an IC50 (C. albicans CaCi-2 [2]; [4]) of 8300 ± 2800 nM and an IC50 (C. albicans CaCi-8; [5]) of 12.3 ± 3.9 µM.
With `COC(=O)Cn1nc(-c2ccc(C(F)(F)F)cc2)c2ccccc21` [Cpd 33] the “CaCi-2 IC50 (μM)” value (C. albicans CaCi-2 [2]; [6]) was “inactive” and the “CaCi-8 IC50 (μM)” value (C. albicans CaCi-8; [6]) was “inactive”.
With `COC(=O)Cn1nc(-c2ccc(C#N)cc2)c2ccccc21` [Cpd 34] the “CaCi-2 IC50 (μM)” value (C. albicans CaCi-2 [2]; [6]) was “inactive” and the IC50 (C. albicans CaCi-8; [5]) was 20.5 ± 0.3 µM.
Molecule `COC(=O)Cn1nc(-c2cccc(C)c2)c2ccccc21` [Cpd 35] has an IC50 (C. albicans CaCi-2 [2]; [4]) of 1100 ± 600 nM and an IC50 (C. albicans CaCi-8; [5]) of 1.9 ± 0.9 µM.
With `COC(=O)Cn1nc(-c2cccc(OC)c2)c2ccccc21` [Cpd 36] the IC50 (C. albicans CaCi-2 [2]; [4]) was 700 ± 300 nM and the IC50 (C. albicans CaCi-8; [5]) was 1.5 ± 0.6 µM.
Work on `COC(=O)Cn1nc(-c2cccc(N(C)C)c2)c2ccccc21` [Cpd 37] yielded an IC50 (C. albicans CaCi-2 [2]; [4]) of 800 ± 100 nM and an IC50 (C. albicans CaCi-8; [5]) of 2 ± 0.2 µM.
`COC(=O)Cn1nc(-c2cccc(F)c2)c2ccccc21` [Cpd 38] showed an IC50 (C. albicans CaCi-2 [2]; [4]) of 1700 ± 400 nM and an IC50 (C. albicans CaCi-8; [5]) of 4.2 ± 4.1 µM.
`COC(=O)Cn1nc(-c2ccccc2C)c2ccccc21` [Cpd 39] gave an IC50 (C. albicans CaCi-2 [2]; [4]) of 5300 ± 500 nM and an IC50 (C. albicans CaCi-8; [5]) of 7.8 ± 2.6 µM.
`COC(=O)Cn1nc(-c2ccccc2OC)c2ccccc21` [Cpd 40] showed an IC50 (C. albicans CaCi-2 [2]; [4]) of 9300 ± 3600 nM and an IC50 (C. albicans CaCi-8; [5]) of 11.4 ± 1.7 µM.
For `COC(=O)Cn1nc(-c2cc(OC)cc(OC)c2)c2ccccc21` [Cpd 41], the “CaCi-2 IC50 (μM)” value (C. albicans CaCi-2 [2]; [6]) was “inactive” and the “CaCi-8 IC50 (μM)” value (C. albicans CaCi-8; [6]) was “inactive”.
For `COC(=O)Cn1nc(-c2cccnc2)c2ccccc21` [drawing 228], the “CaCi-2 IC50 (μM)” value (C. albicans CaCi-2 [2]) was “inactive” and the “CaCi-8 IC50 (μM)” value (C. albicans CaCi-8; [6]) was “inactive”.
For `COC(=O)Cn1nc(-c2cncnc2)c2ccccc21` [drawing 229], the “CaCi-2 IC50 (μM)” value (C. albicans CaCi-2 [2]; [6]) was “inactive” and the IC50 (C. albicans CaCi-8; [5]) was 21.1 ± 3.3 µM.
In the case of `CCc1nn(CC(=O)OC)c2ccccc12` [—Et], the “CaCi-2 IC50 (μM)” value (C. albicans CaCi-2 [2]; [6]) is reported as “inactive” and the “CaCi-8 IC50 (μM)” value (C. albicans CaCi-8; [6]) is reported as “inactive”.
